The structures appear in SMILES notation. Activity calls are given as the source filed them. No cut-off for these calls is given here. Some results are limits rather than exact numbers.

This is an account of results in ChEMBL document CHEMBL3774333, “Identification of SNAIL1 Peptide-Based Irreversible Lysine-Specific Demethylase 1-Selective Inactivators” (J Med Chem, 2016).

For data set [1], the target named is T1, Lysine-specific histone demethylase 1A (Homo sapiens, UniProt O60341). As to the kind of experiment: biochemical.
Description: Inhibition of full length N-terminal His-tagged human recombinant LSD1 (1 to 852 residues) expressed in Escherichia coli BL21(DE3) cells using H3K4me2 peptide as substrate preincubated for 5 mins followed by substrate addition measured for 30 mins by peroxidase coupled assay
In data set [2] the target is T1, Lysine-specific histone demethylase 1A. As to the kind of experiment: Inhibition of LSD1 in human HeLa cells assessed as H3K4me2/H3 ratio at 20 uM after 24 hrs by Western blot analysis in absence of fetal bovine serum. The class given is cell-based.
The next data set concerns HeLa. The experiment in a line: Antiproliferative activity against human HeLa cells assessed as inhibition of cell viability at 12.5 to 100 uM treated for 24 hrs measured after 48 hrs by alamar blue assay in absence of fetal bovine serum. In kind it is functional, cell-based.
The species named for data set [3] is Homo sapiens.
For data set [4], the species on record is Homo sapiens. This is another data set of the same source.
The species named for data set [5] is Homo sapiens. The source holds these as a separate data set.
For data set [6], the species on record is Homo sapiens. The source holds these as a separate data set.
Data set [7] has as its target Lysine-specific demethylase 5A (Homo sapiens, UniProt P29375).
Description: Inhibition of JARID1A (unknown origin) using H3K4me3 peptide substrate preincubated for 5 mins followed by substrate addition by MALDI-TOF mass spectrometric analysis
Data set [8] has as its target T1, Lysine-specific histone demethylase 1A. As to conditions: 22 h.
Description: Drug metabolism assessed as LSD1 (unknown origin)-mediated compound-FAD adduct formation after 22 hrs by MALDI-TOF mass spectrometric analysis
The target in data set [9] is T2, Lysine-specific histone demethylase 2 (Homo sapiens, UniProt Q8NB78).
T2 sequence (Q8NB78 whole entry): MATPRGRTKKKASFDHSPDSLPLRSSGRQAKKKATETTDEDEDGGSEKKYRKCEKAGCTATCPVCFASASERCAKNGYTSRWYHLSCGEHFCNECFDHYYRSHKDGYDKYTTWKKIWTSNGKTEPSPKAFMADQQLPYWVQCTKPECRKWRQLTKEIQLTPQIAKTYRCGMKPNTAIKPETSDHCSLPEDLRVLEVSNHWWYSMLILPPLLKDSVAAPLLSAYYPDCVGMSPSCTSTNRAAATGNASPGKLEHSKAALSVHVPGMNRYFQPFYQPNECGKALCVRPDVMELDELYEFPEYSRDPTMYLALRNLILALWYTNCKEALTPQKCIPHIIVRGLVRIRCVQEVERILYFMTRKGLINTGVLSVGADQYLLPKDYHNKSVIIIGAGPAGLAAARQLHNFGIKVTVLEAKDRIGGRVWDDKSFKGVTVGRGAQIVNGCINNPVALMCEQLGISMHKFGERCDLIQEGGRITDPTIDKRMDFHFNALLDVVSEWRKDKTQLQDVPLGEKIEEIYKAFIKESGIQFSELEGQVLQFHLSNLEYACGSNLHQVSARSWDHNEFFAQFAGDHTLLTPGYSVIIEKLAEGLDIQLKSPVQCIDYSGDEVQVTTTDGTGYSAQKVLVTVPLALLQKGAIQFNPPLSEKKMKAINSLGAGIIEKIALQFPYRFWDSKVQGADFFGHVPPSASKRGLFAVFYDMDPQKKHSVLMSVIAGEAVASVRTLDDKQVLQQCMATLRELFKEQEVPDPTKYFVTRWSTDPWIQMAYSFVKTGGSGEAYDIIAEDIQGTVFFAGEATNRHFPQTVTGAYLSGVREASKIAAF
As to the kind of experiment: biochemical.
Description: Inhibition of full length N-terminal His-tagged human LSD2 (1 to 822 residues) expressed in Escherichia coli BL21(DE3) cells using H3K4me2 peptide substrate by MALDI-TOF mass spectrometric analysis

For data set [10], the target named is T3, Amine oxidase [flavin-containing] A (Homo sapiens, UniProt P21397).
T3 sequence (P21397 whole entry): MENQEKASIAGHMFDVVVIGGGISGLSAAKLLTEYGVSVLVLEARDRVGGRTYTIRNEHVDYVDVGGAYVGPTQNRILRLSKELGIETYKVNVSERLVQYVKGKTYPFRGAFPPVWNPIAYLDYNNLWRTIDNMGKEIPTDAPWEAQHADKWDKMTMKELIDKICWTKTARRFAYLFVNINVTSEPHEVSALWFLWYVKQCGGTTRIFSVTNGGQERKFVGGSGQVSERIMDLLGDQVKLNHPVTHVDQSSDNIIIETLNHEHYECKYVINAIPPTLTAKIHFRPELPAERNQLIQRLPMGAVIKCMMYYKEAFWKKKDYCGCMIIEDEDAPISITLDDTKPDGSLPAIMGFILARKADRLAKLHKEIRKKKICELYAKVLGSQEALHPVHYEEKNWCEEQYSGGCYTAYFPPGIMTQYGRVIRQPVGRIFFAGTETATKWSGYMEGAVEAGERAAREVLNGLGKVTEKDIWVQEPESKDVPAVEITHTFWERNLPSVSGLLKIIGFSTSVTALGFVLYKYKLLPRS
The experiment in a line: biochemical.
Description: Inhibition of human recombinant MAO-A expressed in baculovirus infected BTI insect cells using (4S)-4,5-dihydro-2-(6-hydroxybenzothiazolyl)-4-thiazolecarboxylic acid as substrate incubated for 60 mins by MAO-Glo assay

Data set [11] concerns the target T4, Amine oxidase [flavin-containing] B (Homo sapiens, UniProt P27338).
T4 sequence (P27338 whole entry): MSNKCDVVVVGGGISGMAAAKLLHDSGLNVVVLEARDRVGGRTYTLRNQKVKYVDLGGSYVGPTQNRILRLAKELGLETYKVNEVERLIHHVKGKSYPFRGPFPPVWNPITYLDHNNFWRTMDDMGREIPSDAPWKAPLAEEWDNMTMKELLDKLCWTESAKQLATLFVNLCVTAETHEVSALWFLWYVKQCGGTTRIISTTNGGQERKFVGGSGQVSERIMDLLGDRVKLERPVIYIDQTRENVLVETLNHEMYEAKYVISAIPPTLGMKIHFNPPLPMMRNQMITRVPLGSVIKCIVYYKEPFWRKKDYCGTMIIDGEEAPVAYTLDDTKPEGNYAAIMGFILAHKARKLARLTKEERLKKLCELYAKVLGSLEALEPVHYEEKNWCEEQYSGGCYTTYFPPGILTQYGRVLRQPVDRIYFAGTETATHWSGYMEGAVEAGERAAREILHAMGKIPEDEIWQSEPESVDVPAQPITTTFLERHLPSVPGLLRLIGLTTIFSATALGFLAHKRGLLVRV
As to the kind of experiment: biochemical.
Description: Inhibition of human recombinant MAO-B expressed in baculovirus infected BTI insect cells using (4S)-4,5-dihydro-2-(6-hydroxybenzothiazolyl)-4-thiazolecarboxylic acid as substrate incubated for 60 mins by MAO-Glo assay

Lysine-specific demethylase 5A, sequence (P29375 whole entry): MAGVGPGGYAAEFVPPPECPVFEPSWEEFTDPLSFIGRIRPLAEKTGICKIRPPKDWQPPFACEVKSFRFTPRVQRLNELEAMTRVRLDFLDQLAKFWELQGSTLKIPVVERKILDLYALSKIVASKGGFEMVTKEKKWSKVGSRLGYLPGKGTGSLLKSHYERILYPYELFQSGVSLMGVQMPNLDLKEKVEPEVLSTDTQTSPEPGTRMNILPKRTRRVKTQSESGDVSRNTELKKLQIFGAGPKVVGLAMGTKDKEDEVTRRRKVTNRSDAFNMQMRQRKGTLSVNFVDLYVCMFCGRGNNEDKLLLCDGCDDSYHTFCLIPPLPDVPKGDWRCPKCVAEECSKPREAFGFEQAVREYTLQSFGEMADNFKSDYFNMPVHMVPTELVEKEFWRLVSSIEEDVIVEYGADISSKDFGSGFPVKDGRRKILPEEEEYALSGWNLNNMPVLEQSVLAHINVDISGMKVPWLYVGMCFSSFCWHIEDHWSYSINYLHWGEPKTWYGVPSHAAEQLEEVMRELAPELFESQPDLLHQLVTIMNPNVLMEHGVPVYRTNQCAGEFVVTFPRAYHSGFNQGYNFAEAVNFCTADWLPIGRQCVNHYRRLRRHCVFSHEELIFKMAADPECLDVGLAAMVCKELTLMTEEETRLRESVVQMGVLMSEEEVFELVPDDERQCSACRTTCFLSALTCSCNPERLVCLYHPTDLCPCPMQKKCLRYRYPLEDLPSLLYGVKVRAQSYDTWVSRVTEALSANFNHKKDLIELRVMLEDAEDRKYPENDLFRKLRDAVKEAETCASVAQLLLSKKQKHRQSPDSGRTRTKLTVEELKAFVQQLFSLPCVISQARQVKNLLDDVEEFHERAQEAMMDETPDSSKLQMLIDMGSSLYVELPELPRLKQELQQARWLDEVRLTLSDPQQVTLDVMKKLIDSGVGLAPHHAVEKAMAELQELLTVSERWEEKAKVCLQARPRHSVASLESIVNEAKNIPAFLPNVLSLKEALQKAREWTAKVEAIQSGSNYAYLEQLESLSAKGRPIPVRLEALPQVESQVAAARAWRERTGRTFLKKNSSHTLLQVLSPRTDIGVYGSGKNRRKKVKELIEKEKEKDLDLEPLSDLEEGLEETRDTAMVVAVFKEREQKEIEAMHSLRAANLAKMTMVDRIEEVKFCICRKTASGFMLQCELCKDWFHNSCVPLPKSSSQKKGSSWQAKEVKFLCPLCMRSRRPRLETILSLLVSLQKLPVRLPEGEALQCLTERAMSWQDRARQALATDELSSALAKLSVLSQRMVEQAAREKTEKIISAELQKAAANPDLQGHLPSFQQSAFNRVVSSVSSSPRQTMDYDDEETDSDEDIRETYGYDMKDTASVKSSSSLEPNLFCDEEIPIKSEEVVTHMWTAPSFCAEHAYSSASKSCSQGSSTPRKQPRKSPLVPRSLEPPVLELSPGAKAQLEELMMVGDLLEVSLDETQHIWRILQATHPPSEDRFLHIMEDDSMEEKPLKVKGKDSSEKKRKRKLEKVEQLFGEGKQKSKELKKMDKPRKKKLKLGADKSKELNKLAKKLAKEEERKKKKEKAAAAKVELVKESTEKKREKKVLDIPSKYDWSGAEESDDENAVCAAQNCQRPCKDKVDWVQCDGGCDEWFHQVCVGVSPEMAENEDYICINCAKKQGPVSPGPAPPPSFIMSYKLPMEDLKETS

The term IC50 denotes the concentration that gives 50% inhibition. A low value points to greater potency. For `CC(C)C[C@H](NC(=O)[C@H](CCCCN[C@H]1C[C@@H]1c1ccccc1)NC(=O)[C@H](CO)NC(=O)[C@H](CCCNC(=N)N)NC(=O)[C@@H]1CCCN1)C(=O)N[C@H](C(=O)N[C@@H](CCCNC(=N)N)C(=O)N[C@@H](CCCCN)C(=O)N1CCC[C@H]1C(=O)N[C@@H](CO)C(=O)N[C@@H](CC(=O)O)C(=O)N1CCC[C@H]1C(=O)N[C@@H](CC(N)=O)C(=O)N[C@@H](CCCNC(=N)N)C(=O)N[C@@H](CCCCN)C(=O)N1CCC[C@H]1C(=O)N[C@@H](CC(N)=O)C(=O)N[C@@H](Cc1ccc(O)cc1)C(=O)N[C@@H](CO)C(=O)N[C@@H](CCC(N)=O)C(N)=O)C(C)C`, the midpoint of inhibition in [1], the IC50, lay at 63 µM.

In the case of `C#CCN(CCC[C@H](NC(=O)[C@H](CO)NC(=O)[C@H](CCCNC(=N)N)NC(=O)[C@@H]1CCCN1)C(=O)N[C@@H](CC(C)C)C(=O)N[C@H](C(=O)N[C@@H](CCCNC(=N)N)C(=O)N[C@@H](CCCCN)C(=O)N1CCC[C@H]1C(=O)N[C@@H](CO)C(=O)N[C@@H](CC(=O)O)C(=O)N1CCC[C@H]1C(=O)N[C@@H](CC(N)=O)C(=O)N[C@@H](CCCNC(=N)N)C(=O)N[C@@H](CCCCN)C(=O)N1CCC[C@H]1C(=O)N[C@@H](CC(N)=O)C(=O)N[C@@H](Cc1ccc(O)cc1)C(=O)N[C@@H](CO)C(=O)N[C@@H](CCC(N)=O)C(N)=O)C(C)C)Cc1ccccc1`, in data set [1], it took 40 µM to reach half-maximal inhibition (IC50).

Consider `CC(C)C[C@H](NC(=O)[C@H](CCCCN)NC(=O)[C@H](CO)NC(=O)[C@@H](CCCNC(=N)N)NC(=O)[C@H]1CCCN1)C(=O)N[C@H](C(=O)N[C@@H](CCCNC(=N)N)C(=O)N[C@@H](CCCCNC(=O)[C@@H](CCCNC(=N)N)NC(=O)[C@@H](CCCNC(=N)N)NC(=O)[C@@H](CCCNC(=N)N)NC(=O)[C@@H](CCCNC(=N)N)NC(=O)[C@@H](CCCNC(=N)N)NC(=O)[C@@H](CCCNC(=N)N)NC(=O)[C@@H](CCCNC(=N)N)NC(=O)[C@@H](N)CCCNC(=N)N)C(=O)N1CCC[C@H]1C(=O)N[C@@H](CO)C(=O)N[C@@H](CC(=O)O)C(=O)N1CCC[C@H]1C(=O)N[C@@H](CC(N)=O)C(=O)N[C@@H](CCCNC(=N)N)C(=O)N[C@@H](CCCCN)C(=O)N1CCC[C@H]1C(=O)N[C@H](CC(N)=O)C(=O)N[C@@H](Cc1ccc(O)cc1)C(=O)N[C@@H](CO)C(=O)N[C@@H](CCC(N)=O)C(N)=O)C(C)C`, for which, in data set [2], the Ratio worked out at 1.06. In the data set on HeLa, the inhibition result was “inactive”.

With `C#CCN(C)CCC[C@H](NC(=O)[C@H](CO)NC(=O)[C@H](CCCNC(=N)N)NC(=O)[C@@H]1CCCN1)C(=O)N[C@@H](CC(C)C)C(=O)N[C@H](C(=O)N[C@@H](CCCNC(=N)N)C(=O)N[C@@H](CCCCN)C(=O)N1CCC[C@H]1C(=O)N[C@@H](CO)C(=O)N[C@@H](CC(=O)O)C(=O)N1CCC[C@H]1C(=O)N[C@@H](CC(N)=O)C(=O)N[C@@H](CCCNC(=N)N)C(=O)N[C@@H](CCCCN)C(=O)N1CCC[C@H]1C(=O)N[C@@H](CC(N)=O)C(=O)N[C@@H](Cc1ccc(O)cc1)C(=O)N[C@@H](CO)C(=O)N[C@@H](CCC(N)=O)C(N)=O)C(C)C`, in [1], the IC50 came out at 17 µM. In other words, the double-digit micromolar range.

As to `CC(C)C[C@@H](NC(=O)[C@@H](CCCNN)NC(=O)[C@@H](CO)NC(=O)[C@H](CCCNC(=N)N)NC(=O)[C@@H]1CCCN1)C(=O)N[C@@H](C(=O)N[C@H](CCCNC(=N)N)C(=O)N[C@H](CCCCN)C(=O)N1CCC[C@@H]1C(=O)N[C@@H](CO)C(=O)N[C@@H](CC(=O)O)C(=O)N1CCC[C@H]1C(=O)N[C@@H](CC(N)=O)C(=O)N[C@@H](CCCNC(=N)N)C(=O)N[C@H](CCCCNC(=O)[C@H](CCCNC(=N)N)NC(=O)[C@H](CCCNC(=N)N)NC(=O)[C@H](CCCNC(=N)N)NC(=O)[C@H](CCCNC(=N)N)NC(=O)[C@H](CCCNC(=N)N)NC(=O)[C@H](CCCNC(=N)N)NC(=O)[C@H](CCCNC(=N)N)NC(=O)[C@H](N)CCCNC(=N)N)C(=O)N1CCC[C@H]1C(=O)N[C@H](CC(N)=O)C(=O)N[C@@H](Cc1ccc(O)cc1)C(=O)N[C@@H](CO)C(=O)N[C@@H](CCC(N)=O)C(N)=O)C(C)C`, the Ratio IC50 in the data set filed under Homo sapiens [3] was 23; in the data set filed under Homo sapiens [4], above 94; in the data set listed under Homo sapiens [5], 94; in the data set listed under Homo sapiens [6], 16. For the same molecule, the Ratio in data set [2] is 1.52. For the same molecule, the inhibition result in the data set on HeLa was “Active”. Besides, the IC50 in data set [7] is 5.05 µM; in [1], 0.32 µM; in data set [9], 7.51 µM; in data set [10], above 30 µM; in data set [11], 30 µM. Besides, the Drug metabolism result in data set [8] is “metabolite_detected”.
